From patent US10946098B2, “Activatable two-component photosensitizers” (Carnegie Mellon University, priority 2014, dated 2021)
Read-outs that look alike come from different tables or passages of the source.

Tests used:
[1] = tested on: cardiac function of zebrafish larvae; test: Photo-ablation of cardiac function of larval zebrafish; format: in vivo; conditions: 500 nM fluorogen 3 hours
Text: MG2I-FAP induced photo-ablation of cardiac function of transgenic zebrafish. […] In both control groups, development proceeded normally. Scale Bar=1000 μm and applied to all images.
First, transgenic zebrafish lines were produced that expressed a cytoplasmic FAP-mCerulean3 (FAP-mCer3) tandem protein under control of the heart-specific myosin light chain 7 (my17, also known as cmlc2) promoter, Tg(my17: FAP-mCer3). […] FIG. 19 are photomicrographs of zebrafish larvae as described above. White denotes the presence of cytoplasmic FAP-mCerulean3 in live cells.

dL5 [2] = test: Fluorescence excitation/emission of fluorogen bound to dL5; format: physicochemical; conditions: for λem (nm) / λex (nm): FAP-fluorogen complex; for +dL5 fluor ex (nm): main value
[3] = Absorbance of free fluorogens; format: physicochemical; conditions: for x band abs max (nm) / y band abs max (nm) / λAbs (nm) (Fluorogen): free fluorogen; for ε (10^4 M^−1cm^−1): second value in parentheses not explained
dL5 [4] = test: Fluorescence quantum yield using Cy5 as standard; format: physicochemical; conditions: fluorescence quantum yield of FAP-fluorogen, PBS7.4
Procedure: (§1) FIGS. 7A-7C: FIG. 7A) KD measurement of MG-dL5 and MG2I-dL5, FIG. 7B) absorption spectra of 1 μM MG2I and MG2I with 5 μM dL5 (shorter wavelength absorption peak), FIG. 7C): fluorescence quantum yield measurement of MG2I-dL5 (squares) using Cy5 as standard (circles).
The 3, 5-diiodo-4-hydroxybenzaldehyde, anthracene-9, 10-dipropionic acid disodium salt ADPA, were purchased from VWR international and Sigma-Aldrich, tetrasulfonated aluminum phthalocyanine AlPcS4 from frontier scientific, PEG-catalase, PEG-SOD, hoechst dye 33342, live/dead cell viability/cytotoxicity kit L-3224 and dihydroethidium (hydroethidine) D11347 were from Molecular Probes. Basic media was from Invitrogen. H NMR and C NMR data are recorded from Bruker Avance™ 300 MHz and 500 MHz. Mass spectra are obtained from Thermo-Fisher LCQ ESI/APCI Ion Trap. Final products are purified by silica, neutral alumina and reverse-phase chromatography, purity were tested by UPLC. Raw absorbance values of respective free dyes and dye-FAP complex were measured on a PerkinElmer Lambda45 spectrophotometer. Fluorogenic enhancement was measured in 96 well microplates on a Tecan Safire2 reader. Quantum yields were determined by comparing integrated spectra of MG2I-dL5 complexes with Cy5 in PBS7.4 on a Quantamaster monochromator fluorimeter (Photon Technology International).

[5] = Singlet oxygen quantum yield by ADPA bleaching, AlPcS4 standard; format: physicochemical; conditions: singlet oxygen quantum yield of FAP-fluorogen
Procedure: Determination of singlet oxygen quantum yield: PBS 7.4 solution contains 0.1 mM ADPA and optically matched samples are illuminated from a 660 nm LED source, at different time point, its fluorescence decrease at 374/402 nm was recorded, the data was then fitted into a linear plot, the ψΔ was then calculated from the slopes using the equation below.
To test the two-component FAP photosensitizer ability to generate singlet oxygen, anthracene-9, 10-dipropionic acid (ADPA), a commonly used singlet oxygen scavenger, was used. This was done by monitoring the fluorescence disappearance of ADPA at 374/402 nm. Aluminum phthalocyanine tetrasulfonate (AlPcS4) was used as the standard for the measurement of ^1O2 generation (ψΔ=0.34). Optically matched solutions of MG2I-dL5 and AlPcS4 at 660 nm are compared and the singlet oxygen quantum yield of the two-component FAP photosensitizer is estimated to be 0.13 (FIG. 8). […] This confirmed the specific generation of singlet oxygen from the complex. Importantly, both the fluorescent quantum yield and the singlet oxygen quantum yield of free dyes are not detectable under normal excitation conditions, due to the very short excited state lifetime (<1 […]). […] Moreover, with near infrared excitation, this genetically encoded complex is accessible for a range of tumors and can also be used as tool for tumor visualization with fair fluorescence.

dL5 [6] = test: KD measurement of fluorogen-dL5; conditions: fluorogen binding to dL5
Procedure: as §1
The iodination effect produces a 22 nm bathochromic shift of the x band of free MG while maintaining the FAP-fluorogen interactions. The iodination also renders the excitation maximum of MG2I-dL5 to 666 nm (compare to MG-dL5 at 633 nm), into the near infrared range (Table 1). FIGS. 7A-7C depict (FIG. 7A) KD measurement of MG-dL5 and MG2I-dL5, (FIG. 7B) absorption spectra of 1 μM MG2I and MG2I with 5 μM dL5 (shorter wavelength absorption peak), and (FIG. 7C) fluorescence quantum yield measurement of MG2I-dL5 (squares) using Cy5 as standard (circles).

[7] = tested on: HEK cells transfected to express FAP
Procedure: Dead/Live cell viability assay: 400 nM dye (MG/MG-2I) was pre-complex with cells for 30 mins. After illumination, the buffer was replaced with 2 μM calcein AM and 4 μM EthD-1 working solution. After 30 min incubation at room temperature, the two-color fluorescence cell viability test was conducted with the cells.
Cell killing experiment and cell death count: MG/MG2I was added to the cells 30 minutes before illumination (for A431 and SKBR3 cells, affibody conjugated FAP was added 1 hour prior to illumination). Microscope and light box are used as illumination source, different light dose are achieved by changing of light intensity or illumination time. For death cell counting, the medium was replaced with PBS containing 1 uM propidium iodide and 8 uM Hoechst right after illumination. After 30 min incubation, cells were counted and the death cell ratio is determined by the ratio of PI to Hoechst.
The light induced cytotoxicity of two-component FAP photosensitizer on HEK cells, which were transfected to express FAP on cell surface, was tested. 400 nM MG2I/MG was added to the cell medium 30 minutes prior to illumination; 1 minute of continuous red light illumination from a confocal microscope was applied to cells (40× objective, 640 nm excitation, 0.76 W/cm^2).
The cause of MG2I-dL5 induced cell cytotoxicity was further delineated by adding different ROS quenchers to the solutions.

[8] = Recombinant ZEGFR:1907/FAPdL5** probes binding to malachite green; conditions: for Kd / kon (*10^6M^−1S^−1): binding to malachite green; for Em (nm) / Ex (nm): probe with MG
Procedure: N and C-terminal fusions were evaluated, as well as a single FAP flanked by two affibodies for their properties to bind and activate MG-fluorogens as well as their binding to target receptors on cultured cells.
Characterization of recombinant probes affibody ZEGFR:1907 (A) and FAPdL5** (F) binding to malachite green.

[9] = tested on: cell surface EGFR (A431 cells); test: Cell surface EGFR labeling by ZEGFR:1907 fusion probes on A431 cells; format: binding, human
Procedure: The labeling of cell surface EGFR by ZEGFR:1907 fusion probes was tested with A431 cells, a cell line that expressed EGFR at high levels, ˜2000000/cell. […] By equilibrium binding fluorescence, the cell surface dissociation constant was estimated to be 122±16 nM for AF, 101±17 nM for FA and 37±6 nM for AFA.

[10] = standard for 1O2 generation; cited from earlier work
[11] = tested on: EGFR over-expressing tumor cells A431; test: Selective cancer cell killing, A431 mixed with wild-type HEK; format: cell-based; conditions: 250 nM affiFAP (FAP-conjugated HER1 affibody) then 250 nM dye
Procedure: AffiFAP/FAP was added first and allow cell targeting for 30 minutes, MG2I/MG-ester was then added and incubated for another 30 minutes (No washing is needed in the process). After 1 min illumination (60× objective, 2.43 W/cm^2), Dead/Live working solution was used to replace the cell culture medium. Two-color viability fluorescence assay was performed after 1 hr staining
(§2) FAP-conjugated HER1 affibody was used to target EGFR over-expressing tumor cells A431 in cell cultures mixed with wild-type HEK cells. 250 nM affiFAP was first added to label A431 cells, followed by 250 nM MG2I/MG. […] It is shown that the tumor cells need to be targeted first by the HER1-dL5 affibody, and become accessible to photosentisization only after MG2I is added and bound to the affiFAP. […] Thus, by controlling the specific generation of singlet oxygen on the tumor site, we can eliminate the nonspecific damage to normal cells. […] This improvement to the current state-of-the-art photodynamic therapy will be of great utility, for example with the methods and modularity described herein.

SKBR3 cancer cells = test: Selective killing of SKBR3 cancer cells; format: cell-based; conditions: 100 nM HER2 conjugated dL5 then 100 nM MG2I
Procedure: 100 nM HER2 conjugated dL5 was first added to the cells following by 100 nM MG2I.
as §2

cells = test: Toxicity of free MG2I to cells; format: cell-based
wild-type HEK cells = format: cell-based
Procedure: as §2

[12] = transgenic Tg(my17: FAP-mCer3), 48 hpf, 12 minutes 659 nm 242 mW/cm^2

## CCOC(=O)CCCOc1ccc(C(=C2C=CC(=[N+](C)C)C=C2)c2ccc(N(C)C)cc2)cc1 [MG, reference compound]
[1]; [12]
  heart function immediately after illumination: normal
dL5 [2]
  λem (nm): 668 nm
  λex (nm): 633 nm
dL5 [2]; bound to dL5
  +dL5 fluor em (nm): 668 nm
  +dL5 fluor ex (nm): 636 nm
dL5 [2]; bound to dL5, second (minor) excitation peak printed in parentheses
  +dL5 fluor ex (nm), value in parentheses: 482 nm
[3]
  x band abs max (nm): 606 nm
  y band abs max (nm): 466 nm
  λAbs (nm) (Fluorogen): 606 nm
  ε (10^4 M^−1cm^−1): 10.3(9.18) 10^4 M^−1cm^−1
dL5 [4]
  ΦF: 0.123
[5]
  ΦΔ: <0.005
dL5 [6]
  Kd: 0.005 nM

## [N-]=[N+]=[N-] [sodium azide, reference compound]
[7]; concentrations higher than 10 mM
  inhibition of MG2I-dL5 induced cytotoxicity by ROS quencher: totally inhibited

## AF: fusion of affibody ZEGFR:1907 (A) and FAPdL5** (F)
[8]
  Kd: 0.43 ± 0.12 nM
  kon (*10^6M^−1S^−1): 1.05 *10^6M^−1S^−1
  Em (nm): 664 nm
  Ex (nm): 634 nm
[8]; in the presence of MG
  emission peak: 664 nm
  major excitation peak: 636 nm
  minor excitation peak: 480 nm
[9]
  cell surface labeling, live-cell imaging: clear cell surface labeling

## AFA: single FAPdL5** flanked by two ZEGFR:1907 affibodies
[8]
  Kd: 0.53 ± 0.11 nM
  kon (*10^6M^−1S^−1): 1.02 *10^6M^−1S^−1
  Em (nm): 666 nm
  Ex (nm): 634 nm
[8]; in the presence of MG
  emission peak: 664 nm
  fluorescence intensity compared to F and AF: enhanced fluorescence intensity
  major excitation peak: 636 nm
  minor excitation peak: 480 nm
[9]
  cell surface labeling, live-cell imaging: clear cell surface labeling

## Aluminum phthalocyanine tetrasulfonate [AlPcS4]
[10]
  ψΔ of standard: 0.34

## Methylium, bis[4-(dimethylamino)phenyl](4-(3-carboethoxypropyl)-3,5-diiodo-phenyl)-chloride [MG2I]
[1]; [12]
  heart function immediately after illumination: no sign of heart beat or blood circulation
[1]; wild-type zebrafish, 12 minutes 659 nm
  heart function immediately after illumination: normal
dL5 [2]
  λem (nm): 693 nm
  λex (nm): 666 nm
dL5 [2]; bound to dL5
  +dL5 fluor em (nm): 693 nm
  +dL5 fluor ex (nm): 666 nm
[11]
  killing of A431 cells upon illumination: only the EGFR1-expressing tumor cells were killed
[3]
  x band abs max (nm): 628 nm
  y band abs max (nm): 440 nm
  λAbs (nm) (Fluorogen): 628 nm
  ε (10^4 M^−1cm^−1): 10.1(9.02) 10^4 M^−1cm^−1
[3]; iodination effect
  bathochromic shift of the x band relative to free MG: 22 nm
dL5 [4]
  ΦF: 0.037
SKBR3 cancer cells
  killing of SKBR3 cells: selective killing
[5]
  ΦΔ: 0.13
cells
  toxicity to cells: no toxicity to cells
dL5 [6]
  Kd: 0.073 nM
wild-type HEK cells
  light induced cytotoxicity: no observed light-induced cytotoxicity

## affibody: affibody ZEGFR:1907 alone (SEQ ID NO: 18)
[8]
  fluorescence activation or fluorogen binding by affibody alone: No detectable fluorescence activation or fluorogen binding

B1: catalase: ROS quencher enzyme (protein, UniProt P00432 2-527, looked up)
Catalase: ADNRDPASDQMKHWKEQRAAQKPDVLTTGGGNPVGDKLNSLTVGPRGPLLVQDVVFTDEMAHFDRERIPERVVHAKGAGAFGYFEVTHDITRYSKAKVFEHIGKRTPIAVRFSTVAGESGSADTVRDPRGFAVKFYTEDGNWDLVGNNTPIFFIRDALLFPSFIHSQKRNPQTHLKDPDMVWDFWSLRPESLHQVSFLFSDRGIPDGHRHMNGYGSHTFKLVNANGEAVYCKFHYKTDQGIKNLSVEDAARLAHEDPDYGLRDLFNAIATGNYPSWTLYIQVMTFSEAEIFPFNPFDLTKVWPHGDYPLIPVGKLVLNRNPVNYFAEVEQLAFDPSNMPPGIEPSPDKMLQGRLFAYPDTHRHRLGPNYLQIPVNCPYRARVANYQRDGPMCMMDNQGGAPNYYPNSFSAPEHQPSALEHRTHFSGDVQRFNSANDDNVTQVRTFYLKVLNEEQRKRLCENIAGHLKDAQLFIQKKAVKNFSDVHPEYGSRIQALLDKYNEEKPKNAVHTYVQHGSHLSAREKANL
modifications: PEG
[7]; up to 1000 U/mL
  inhibition of MG2I-dL5 induced cytotoxicity by ROS quencher: very little effect in rescuing cell death
